# Laboratory results from patent US12552783B2, “Modulators of proteolysis and associated methods of use” (Arvinas Operations, Inc., priority 2018, dated 2026).
# Molecular target: KRas (Homo sapiens, UniProt P01116, G12C)
# Experiment: KRas degradation in NCI-H2030 cells by Western blot, normalized to GAPDH (data of Table 14)
# Type: cell-based
# Design: host or cells: NCI-H2030
# Conditions: for Percent Degradation at Indicated Concentration (μM): H2030; for Dmax: NCI-H2030
# How it was run: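 Degradation of endogenous homozygous G12C KRas is measured by immunoblot after serum starvation and compound exposure at three final concentrations (0.3, 1 and 3 μM). VHL-recruiting compounds are incubated 24 h and all others 72 h. Percent loss is calculated from GAPDH-normalized KRas relative to vehicle.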
Percent Degradation at Indicated Concentration (μM) (0.3 μM),Percent Degradation at Indicated Concentration (μM) (1 μM),Percent Degradation at Indicated Concentration (μM) (3 μM),Dmax,SMILES
C (Percent Degradation: C ≤ 35),C (Percent Degradation: C ≤ 35),C (Percent Degradation: C ≤ 35),≤ 35%,"CC(=O)N1CCN(c2nc(NCCC(=O)N(C)CCOCCOCCOCCOCCOCC(=O)N[C@H](C(=O)N3C[C@H](O)C[C@H]3C(=O)N[C@@H](C)c3ccc(-c4scnc4C)cc3)C(C)(C)C)nc3c(F)c(-c4cc(O)cc5ccccc45)c(Cl)cc23)CC1 [compound 204, (2S,4R)-1-((2S)-24-((4-(4-acetylpiperazin-1-yl)-6-chloro-8-fluoro-7-(3-hydroxynaphthalen-1-yl)quinazolin-2-yl)amino)-2-(tert-butyl)-21-methyl-4,22-dioxo-6,9,12,15,18-pentaoxa-3,21-diazatetracosanoyl)-4-hydroxy-N-((S)-1-(4-(4-methylthiazol-5-yl)phenyl)ethyl)pyrrolidine-2-carboxamide]"
C (Percent Degradation: C ≤ 35),C (Percent Degradation: C ≤ 35),C (Percent Degradation: C ≤ 35),≤ 35%,"C=CC(=O)N1CCN(c2nc(NCCC(=O)N(C)CCOCCOCCOCCOCCOCC(=O)N[C@H](C(=O)N3C[C@H](O)C[C@H]3C(=O)N[C@@H](C)c3ccc(-c4scnc4C)cc3)C(C)(C)C)nc3c(F)c(-c4c(O)cccc4F)c(Cl)cc23)CC1 [compound 214, (2S,4R)-1-((S)-24-(((R)-4-(4-acryloylpiperazin-1-yl)-6-chloro-8-fluoro-7-(2-fluoro-6-hydroxyphenyl)quinazolin-2-yl)amino)-2-(tert-butyl)-21-methyl-4,22-dioxo-6,9,12,15,18-pentaoxa-3,21-diazatetracosanoyl)-4-hydroxy-N-((S)-1-(4-(4-methylthiazol-5-yl)phenyl)ethyl)pyrrolidine-2-carboxamide]"
C (Percent Degradation: C ≤ 35),C (Percent Degradation: C ≤ 35),C (Percent Degradation: C ≤ 35),≤ 35%,"C=CC(=O)N1CCN(c2nc(NCCC(=O)N(C)CCOCCOCCN3CCN(CC(=O)N[C@H](C(=O)N4C[C@H](O)C[C@H]4C(=O)N[C@@H](C)c4ccc(-c5scnc5C)cc4)C(C)(C)C)CC3)nc3c(F)c(-c4cc(O)cc5ccccc45)c(Cl)cc23)CC1 [compound 249, (2S,4R)-1-((2S)-2-(2-(4-(2-(2-(2-(3-((4-(4-acryloylpiperazin-1-yl)-6-chloro-8-fluoro-7-(3-hydroxynaphthalen-1-yl)quinazolin-2-yl)amino)-N-methylpropanamido)ethoxy)eth-oxy)ethyl)piperazin-1-yl)acetamido)-3,3-dimethylbutanoyl)-4-hydroxy-N-((S)-1-(4-(4-methylthiazol-5-yl)phenyl)ethyl)pyrrolidine-2-carboxamide]"
C (Percent Degradation: C ≤ 35),C (Percent Degradation: C ≤ 35),C (Percent Degradation: C ≤ 35),≤ 35%,"CN[C@@H](C)C(=O)N[C@H](C(=O)N1CCC[C@H]1c1nc(-c2ccc(OCCOCCOCCOCCN(C)C(=O)CCNc3nc(N4CCN(C(C)=O)CC4)c4cc(Cl)c(-c5cc(O)cc6ccccc56)c(F)c4n3)c3ccccc23)cs1)C1CCCCC1 [compound 268, 3-((4-(4-acetylpiperazin-1-yl)-6-chloro-8-fluoro-7-(3-hydroxynaphthalen-1-yl)quinazolin-2-yl)amino)-N-(2-(2-(2-(2-((4-(2-((S)-1-((S)-2-cyclohexyl-2-((S)-2-(methylamino)propan-amido)acetyl)pyrrolidin-2-yl)thiazol-4-yl)naphthalen-1-yl)oxy)ethoxy)ethoxy)eth-oxy)ethyl)-N-methylpropanamide]"
C (Percent Degradation: C ≤ 35),C (Percent Degradation: C ≤ 35),C (Percent Degradation: C ≤ 35),≤ 35%,"CN[C@@H](C)C(=O)N[C@H](C(=O)N1CCC[C@H]1c1nc(-c2ccc(OCCOCCOCCOCCOCCN(C)C(=O)CCNc3nc(N4CCN(C(C)=O)CC4)c4cc(Cl)c(-c5cc(O)cc6ccccc56)c(F)c4n3)c3ccccc23)cs1)C1CCCCC1 [compound 269, 3-((4-(4-acetylpiperazin-1-yl)-6-chloro-8-fluoro-7-(3-hydroxynaphthalen-1-yl)quinazolin-2-yl)amino)-N-(14-((4-(2-((S)-1-((S)-2-cyclohexyl-2-((S)-2-(methylamino)propan-amido)acetyl)pyrrolidin-2-yl)thiazol-4-yl)naphthalen-1-yl)oxy)-3,6,9,12-tetraoxatetradecyl)-N-methylpropanamide]"
C (Percent Degradation: C ≤ 35),C (Percent Degradation: C ≤ 35),C (Percent Degradation: C ≤ 35),≤ 35%,"C=CC(=O)N1CCN(c2nc(NCCC(=O)N(C)CCOCCOc3ccc(-c4csc([C@@H]5CCCN5C(=O)[C@@H](NC(=O)[C@H](C)NC)C5CCCCC5)n4)c4ccccc34)nc3c(F)c(-c4cc(O)cc5ccccc45)c(Cl)cc23)CC1 [compound 271, 3-((4-(4-acryloylpiperazin-1-yl)-6-chloro-8-fluoro-7-(3-hydroxynaphthalen-1-yl)quinazolin-2-yl)amino)-N-(2-(2-((4-(2-((S)-1-((S)-2-cyclohexyl-2-((S)-2-(methylamino)propan-amido)acetyl)pyrrolidin-2-yl)thiazol-4-yl)naphthalen-1-yl)oxy)ethoxy)ethyl)-N-methylpropanamide]"
C (Percent Degradation: C ≤ 35),C (Percent Degradation: C ≤ 35),C (Percent Degradation: C ≤ 35),≤ 35%,"C=CC(=O)N1CCN(c2nc(NCCC(=O)N(C)CCOCCOCCOCCOc3ccc(-c4csc([C@@H]5CCCN5C(=O)[C@@H](NC(=O)[C@H](C)NC)C5CCCCC5)n4)c4ccccc34)nc3c(F)c(-c4cc(O)cc5ccccc45)c(Cl)cc23)CC1 [compound 273, 3-((4-(4-acryloylpiperazin-1-yl)-6-chloro-8-fluoro-7-(3-hydroxynaphthalen-1-yl)quinazolin-2-yl)amino)-N-(2-(2-(2-(2-((4-(2-((S)-1-((S)-2-cyclohexyl-2-((S)-2-(methylamino)propan-amido)acetyl)pyrrolidin-2-yl)thiazol-4-yl)naphthalen-1-yl)oxy)ethoxy)ethoxy)eth-oxy)ethyl)-N-methylpropanamide]"
C (Percent Degradation: C ≤ 35),C (Percent Degradation: C ≤ 35),C (Percent Degradation: C ≤ 35),≤ 35%,"C=CC(=O)N1CCN(c2nc(NCCC(=O)N(C)CCOCCOCCNC(=O)c3ccc(NC(=O)[C@@H]4N[C@@H](CC(C)(C)C)[C@](C#N)(c5ccc(Cl)cc5F)[C@H]4c4cccc(Cl)c4F)c(OC)c3)nc3c(F)c(-c4cc(O)cc5ccccc45)c(Cl)cc23)CC1 [compound 302, (2R,3S,4R,5S)-N-(4-((2-(2-(2-(3-((4-(4-acryloylpiperazin-1-yl)-6-chloro-8-fluoro-7-(3-hydroxynaphthalen-1-yl)quinazolin-2-yl)amino)-N-methylpropanamido)ethoxy)eth-oxy)ethyl)carbamoyl)-2-methoxyphenyl)-3-(3-chloro-2-fluorophenyl)-4-(4-chloro-2-fluorophenyl)-4-cyano-5-neopentylpyrrolidine-2-carboxamide]"
C (Percent Degradation: C ≤ 35),C (Percent Degradation: C ≤ 35),C (Percent Degradation: C ≤ 35),≤ 35%,"C=CC(=O)N1CCN(c2nc(NCCC(=O)N(C)CCOCCOCCOCCNC(=O)c3ccc(NC(=O)[C@@H]4N[C@@H](CC(C)(C)C)[C@](C#N)(c5ccc(Cl)cc5F)[C@H]4c4cccc(Cl)c4F)c(OC)c3)nc3c(F)c(-c4cc(O)cc5ccccc45)c(Cl)cc23)CC1 [compound 303, (2R,3S,4R,5S)-N-(4-((15-((4-(4-acryloylpiperazin-1-yl)-6-chloro-8-fluoro-7-(3-hydroxynaphthalen-1-yl)quinazolin-2-yl)amino)-12-methyl-13-oxo-3,6,9-trioxa-12-azapentadecyl)carbamoyl)-2-methoxyphenyl)-3-(3-chloro-2-fluorophenyl)-4-(4-chloro-2-fluorophenyl)-4-cyano-5-neopentylpyrrolidine-2-carboxamide]"
C (Percent Degradation: C ≤ 35),C (Percent Degradation: C ≤ 35),C (Percent Degradation: C ≤ 35),≤ 35%,"C=CC(=O)N1CCN(c2nc(NCCC(=O)N(C)CCOCCOCCOCCOCCNC(=O)c3ccc(NC(=O)[C@@H]4N[C@@H](CC(C)(C)C)[C@](C#N)(c5ccc(Cl)cc5F)[C@H]4c4cccc(Cl)c4F)c(OC)c3)nc3c(F)c(-c4cc(O)cc5ccccc45)c(Cl)cc23)CC1 [compound 304, (2R,3S,4R,5S)-N-(4-((18-((4-(4-acryloylpiperazin-1-yl)-6-chloro-8-fluoro-7-(3-hydroxynaphthalen-1-yl)quinazolin-2-yl)amino)-15-methyl-16-oxo-3,6,9,12-tetraoxa-15-azaoctadecyl)carbamoyl)-2-methoxyphenyl)-3-(3-chloro-2-fluorophenyl)-4-(4-chloro-2-fluorophenyl)-4-cyano-5-neopentylpyrrolidine-2-carboxamide]"
